Assay results taken from US11028051B2, “Tetrahydroquinoline-based bromodomain inhibitors” (St. Jude Children's Research Hospital, priority 2016, dated 2021).

Key:
Assay in all cases: competitive TR-FRET assay, BET-BD with acetylated peptide ligand
Format in all cases: binding
BRD2-BD2 = BRD2-BD2 (Homo sapiens (Human), UniProt P25440); details: for EC50: BRD2-BD2, Table 11 additional modifications, read-out: 2.2 EC50; for 2.1/2.2: ratio of BRD2-BD1 EC50 to BRD2-BD2 EC50 (selectivity)
Method: (§1) Inhibitor potency was determined using a competitive TR-FRET assay as detailed herein, measuring interaction of the respective BET-BD with an acetylated peptide ligand (Table 2).

BRD3-BD1 = BRD3-BD1 (Homo sapiens (Human), UniProt Q15059); details: BRD3-BD1; Table 11 additional modifications; read-out: 3.1 EC50
Method: as §1

BRD4-BD2 = BRD4-BD2 (Homo sapiens (Human), UniProt O60885); details: BRD4-BD2; Table 11 additional modifications; read-out: 4.2 EC50
Method: as §1

BRD2-BD1 = BRD2-BD1 (Homo sapiens (Human), UniProt P25440); details: BRD2-BD1; Table 11 additional modifications; read-out: 2.1 EC50
Method: as §1

BRDT = BRDT (Homo sapiens, UniProt Q58F21); details: BRDT; Table 11 additional modifications; read-out: BRDT EC50
Method: as §1

BRD4-BD1 = BRD4-BD1 (Homo sapiens (Human), UniProt O60885); details: BRD4-BD1; Table 11 additional modifications; read-out: 4.1 EC50
Method: as §1

Sequence of BRD2-BD1 (P25440 74-180): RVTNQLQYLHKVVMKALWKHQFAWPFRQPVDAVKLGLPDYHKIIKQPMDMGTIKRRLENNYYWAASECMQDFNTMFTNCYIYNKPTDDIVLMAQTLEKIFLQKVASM
Sequence of BRD3-BD1 (Q15059 34-140): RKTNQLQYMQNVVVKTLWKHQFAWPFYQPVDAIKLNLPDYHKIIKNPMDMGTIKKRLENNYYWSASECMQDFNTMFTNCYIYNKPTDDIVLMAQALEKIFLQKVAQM
Sequence of BRD2-BD2 (P25440 344-453): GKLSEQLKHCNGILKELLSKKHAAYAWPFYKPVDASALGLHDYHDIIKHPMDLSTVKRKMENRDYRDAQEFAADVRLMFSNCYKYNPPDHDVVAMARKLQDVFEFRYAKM

EC50 (BRD2-BD2) [µM] | 2.1/2.2 (BRD2-BD2) | EC50 (BRD3-BD1) [µM] | EC50 (BRD4-BD2) [µM] | EC50 (BRD2-BD1) [µM] | EC50 (BRDT) [µM] | EC50 (BRD4-BD1) [µM] | Compound
0.03 | 31 | 0.59 | 0.04 | 0.93 | 1.8 | 1.5 | CC(=O)Nc1cccc(-c2ccc3c(c2)[C@H](Nc2ccc4c(c2)COC4=O)C[C@H](C)N3C(C)=O)c1 [compound 12]
14 | 0.86 | 10 | 15 | 12 | 10 | 47 | CC(=O)Nc1cccc(-c2ccc3c(c2)[C@H](N)C[C@H](C)N3C(C)=O)c1 [compound 9]
0.2 | 16 | 1.6 | 51 | 3.2 | 4.3 | 3.4 | CC(=O)Nc1cccc(-c2ccc3c(c2)[C@H](Nc2ccc(N(C)C(C)=O)cc2)C[C@H](C)N3C(C)=O)c1 [compound 11]
0.98 | 10 | 6.4 | 1.9 | 9.8 | 17 | 13 | CC(=O)Nc1cccc(-c2ccc3c(c2)[C@H](Nc2cncnc2)C[C@H](C)N3C(C)=O)c1 [compound 16]
0.62 | 3.9 | 1.2 | 0.54 | 2.4 | 2.8 | 1.5 | CC(=O)Nc1cccc(-c2ccc3c(c2)[C@H](NC2CCCCCC2)C[C@H](C)N3C(C)=O)c1 [compound 37]
0.1 | 23 | 0.71 | 0.32 | 2.3 | 2.1 | 1.5 | CNCc1ccc(N[C@@H]2C[C@H](C)N(C(C)=O)c3ccc(-c4cccc(NC(C)=O)c4)cc32)cc1 [compound 23]
0.59 | 36 | 10 | 0.9 | 21 | 10 | 21 | CC(=O)N1c2ccc(-c3cccc(NC(=O)OC(C)(C)C)c3)cc2[C@H](Nc2ccc(Cl)cc2)C[C@@H]1C [compound 134]
0.11 | 10 | 2.1 | 0.21 | 3.6 | 1.6 | 5.1 | CC(=O)Nc1cccc(-c2ccc3c(c2)[C@H](Nc2ccc(N(C)C)cc2)C[C@H](C)N3C(C)=O)c1 [compound 118]
3 | 1.1 | 1.4 | 5.4 | 3.2 | 7 | 2.4 | CC(=O)Nc1cccc(-c2ccc3c(c2)[C@H](NC2CCOCC2)C[C@H](C)N3C(C)=O)c1 [compound 36]
0.11 | 64 | 10 | 0.1 | 7 | 0.7 | 7 | COC(=O)c1ccccc1N[C@@H]1C[C@H](C)N(C(C)=O)c2ccc(-c3cccc(NC(C)=O)c3)cc21 [compound 15]
0.09 | 20 | 1.19 | 0.06 | 1.8 | 2.6 | 2 | CC(=O)Nc1cccc(-c2ccc3c(c2)[C@H](Nc2ccc4c(c2)OCO4)C[C@H](C)N3C(C)=O)c1 [compound 14]
0.37 | 16 | 10 | 0.54 | 20 | 10 | 17 | CC(=O)Nc1cccc(-c2ccc3c(c2)[C@H](Nc2ccc(OC(F)(F)F)cc2)C[C@H](C)N3C(C)=O)c1 [compound 132]
1.4 | 5.1 | 0.41 | 1.3 | 1.7 | 3 | 1.3 | CC(=O)N1c2ccc(-c3cc4ccccc4[nH]3)cc2[C@H](NC(=O)OC(C)C)C[C@@H]1C [compound 92]
